In patent publication US5182265A, “Pharmacologically active peptide derivatives and pharmaceutical preparations containing them” (SPA Societa' Prodotti Antibiotici S.p.A., priority 1989, dated 1993):
Structures can show the parent of a compound that is named as a salt. Where a SMILES comes first, the peptide text is derived from it.

Assay: Water solubility of the salts (qualitative remark in the preparation)
Format: physicochemical
Conditions: qualitative description of the isolated salt
Experimental: H-Thr-Asp-D-Tyr-OH is dissolved in 5 volumes of water, and the solution is added with an equivalent amount of 1N HCl.
The solution is concentrated to small volume under vacuum and added with acetone.

| SMILES | water solubility of the isolated powder |
| --- | --- |
| C[C@@H](O)[C@H](N)C(=O)N[C@@H](CC(=O)O)C(=O)N[C@H](Cc1ccc(O)cc1)C(=O)O [H-Thr-Asp-D-Tyr-OH hydrochloride] (HELM PEPTIDE1{T.D.[dY]}$$$$V2.0) | very water soluble |
| C[C@@H](O)[C@H](N)C(=O)N[C@@H](CC(=O)O)C(=O)N[C@@H](Cc1ccc(O)cc1)C(=O)O [H-Thr-Asp-Tyr-OH lysine salt] (H-Thr-Asp-Tyr-OH) | freely water soluble |
